Data taken from patent publication US8129499B2 (priority 2008, dated 2012).
Like-named read-outs stand apart in the source and are kept apart here. Residues, ends and D or L forms follow the SMILES beside them. No end group written: not given here.

How the values were obtained:
purified PR/8 virus = tested on: purified PR/8 virus; set-up: species or system influenza virus A/PuertoRico/8/34 (PR/8, H1N1)
MDCK cells = conditions: 5-75 μM peptide, 24 hours, in words
cRBCs = conditions: for effect on cRBC membrane integrity: at any concentration (1-30 μM), in words
in vitro = conditions: dog, MDCK cells
[1] = 10 μM peptide, 64 HA units of purified A/PR/8/34, Yes/No
[2] = 10 μM peptide, mock treated virus (64 HAU) = 100% hemagglutination
[3] = 0.1-10 μM peptide, 64 HA units purified PR/8, estimated from dose response curves (Table 3)

| Compound | HA inhibition (purified A/PR/8/34) | % inhibition (purified A/PR/8/34; 10 μM) | also measured |
| --- | --- | --- | --- |
| RRKKAVALLPAVLLALLAP [SEQ. ID. NO: 18, RRKKAVALLPAVLLALLAP] |  |  | HA inhibition (purified A/PR/8/34; [1]): Yes; % inhibition (purified A/PR/8/34; [2]): 94 ± 6%; EC50 (purified A/PR/8/34; [3]): 800 ± 300 nM |
| RRKKAAVALLPAVLL [SEQ. ID. NO: 6, RRKKAAVALLPAVLL] | No | 0% |  |
| RRKKLAVLLALLA [SEQ. ID. NO: 45, RRKKLAVLLALLA] | Yes |  | EC50 (purified A/PR/8/34): 3000 nM; virion aggregation by electron microscopy (purified PR/8 virus): large aggregates |
| RRKKAAVALLPAVLLALLAP [EB, reference compound] |  |  | toxicity against MDCK cells (MDCK cells): limited toxicity; % inhibition (purified A/PR/8/34; [2]): 95 ± 2%; % inhibition (purified A/PR/8/34; 10 μM peptide, normalized to EB-treated (10 μM EB) virus (64 HAU) = 100% inhibition (Table 4)): 100%; EC50 (purified A/PR/8/34; [3]): 2600 nM; EC50 (purified A/PR/8/34; Example 6, Table 4): 2000 nM; effect on cRBC membrane integrity (cRBCs): no effect |
| RKAVLLALLA [SEQ ID NO: 51, RKAVLLALLA] |  | 50% | viral hemagglutination activity (FIG. 7) (purified A/PR/8/34): detected to a lesser extent |
| N=C(N)NCCC[C@H](NC(=O)[C@@H](N)CCCNC(=N)N)C(=O)N[C@@H](CCCCN)C(=O)N[C@@H](CCCCN)C(=O)O [SEQ. ID. NO: 17, RRKK] (H-RRKK-OH; N-terminus and C-terminus assumed) | No | 0% | antiviral activity (purified A/PR/8/34): no antiviral activity |
| RRKKAAVALLPAVL [SEQ. ID. NO: 7, RRKKAAVALLPAVL] | No | 0% |  |
| KKLAVLLALLA [SEQ ID NO: 53, KKLAVLLALLA] |  | 0% |  |
| RRKKAAVALLPAVLLALLA [SEQ. ID. NO: 2, RRKKAAVALLPAVLLALLA] |  |  | HA inhibition (purified A/PR/8/34; [1]): Yes; % inhibition (purified A/PR/8/34; [2]): 94 ± 2%; EC50 (purified A/PR/8/34; [3]): 500 ± 300 nM |
| RRKKAAVA [SEQ. ID. NO: 13, RRKKAAVA] | No | 0% |  |
| RRKKAAVALLP [SEQ. ID. NO: 10, RRKKAAVALLP] | No | 4 ± 8% |  |
| RRKKAALLVLAALAVLA [SEQ. ID. NO: 30, RRKKAALLVLAALAVLA] | No | 0% |  |
| RRKKAAVALLPAV [SEQ. ID. NO: 8, RRKKAAVALLPAV] | No | 0% |  |
| RRKKLLALLAP [SEQ. ID. NO: 24, RRKKLLALLAP] | No | 0% |  |
| RRKKA [SEQ. ID. NO: 16, RRKKA] | No | 0% |  |
| RRKKVALLPAVLLALLAP [SEQ. ID. NO: 19, RRKKVALLPAVLLALLAP] |  |  | HA inhibition (purified A/PR/8/34; [1]): Yes; % inhibition (purified A/PR/8/34; [2]): 94 ± 4%; EC50 (purified A/PR/8/34; [3]): 500 ± 400 nM |
| RRKKLAVLLAAAA [SEQ ID NO: 56, RRKKLAVLLAAAA] |  | 0% |  |
| O=C(CCCCCCC(=O)ON1C(=O)CCC1=O)ON1C(=O)CCC1=O [DSS, disuccinimidyl suberate, reference compound] |  |  | virion aggregation by electron microscopy (purified PR/8 virus): large aggregates |
| RRKKAAV [SEQ. ID. NO: 14, RRKKAAV] | No | 0% |  |
| RRKKAAVAL [SEQ. ID. NO: 12, RRKKAAVAL] | No | 0% |  |
| RRKKAAAAAAAAA [SEQ ID NO: 49, RRKKAAAAAAAAA] |  | 87.5% | EC50 (purified A/PR/8/34): ~7000 nM; viral hemagglutination activity (FIG. 7) (purified A/PR/8/34): detected to a lesser extent |
| RRKKLLAP [SEQ. ID. NO: 26, RRKKLLAP] | No | 0% |  |

| Compound | HA inhibition (purified A/PR/8/34) | % inhibition (purified A/PR/8/34; 10 μM) | also measured |
| --- | --- | --- | --- |
| RRKKLPAVLLALLAP [SEQ. ID. NO: 22, RRKKLPAVLLALLAP] | Yes |  | viral hemagglutination activity (FIG. 7) (purified A/PR/8/34): the same as that for the EB peptide |
| KLAVLLALLA [SEQ ID NO: 52, KLAVLLALLA] |  | 25% |  |
| EEDDLAVLLALLA [SEQ ID NO: 54, EEDDLAVLLALLA] |  | 0% |  |
| RRKKLLAVLLALLA [SEQ ID NO: 44, RRKKLLAVLLALLA] | Yes | 95±2% | EC50 (purified A/PR/8/34): 3000 nM |
| RRKKVLLALLAP [SEQ. ID. NO: 23, RRKKVLLALLAP] | Yes | 90 ± 4% | EC50 (purified A/PR/8/34): 4000 ± 800 nM |
| RRKKAAVALL [SEQ. ID. NO: 11, RRKKAAVALL] | No | 0% |  |
| RRKKALLAP [SEQ. ID. NO: 25, RRKKALLAP] | No | 0% |  |
| RRKKAP [SEQ. ID. NO: 28, RRKKAP] | No | 0% |  |
| RRKKLAALPLVLAAPLAVLA [EBX, reference compound] |  | 0% | effect on cRBC membrane integrity (cRBCs): no effect |
| RRKKAA [SEQ. ID. NO: 15, RRKKAA] | No | 0% |  |
| RRKKLAVAAALLA [SEQ ID NO: 55, RRKKLAVAAALLA] |  | 0% |  |
| RRKKVALLAVLLALLA [SEQ. ID. NO: 32, RRKKVALLAVLLALLA] |  | 94 ± 4% | toxicity against MDCK cells (MDCK cells): significant toxicity; viability at 24 h, 75 µM (in vitro): 20%; EC50 (purified A/PR/8/34): 500 ± 500 nM; lysis (hemoglobin release) compared to SDS treated control (cRBCs; 10 μM peptide): 71%; lysis (hemoglobin release) compared to SDS treated control (cRBCs; 30 μM peptide): 100%; concentration inducing hemoglobin release (cRBCs; 0.5% cRBC, 1 hour at 37° C.): exceeding 5 μM |
| RRKKAAVALLPAVLLAL [SEQ. ID. NO: 4, RRKKAAVALLPAVLLAL] | Yes | 89 ± 3% | EC50 (purified A/PR/8/34): 3800 ± 1900 nM |
| RKKLAVLLALLA [SEQ ID NO: 50, RKKLAVLLALLA] |  | 75% | EC50 (purified A/PR/8/34): 8000 nM; viral hemagglutination activity (FIG. 7) (purified A/PR/8/34): detected to a lesser extent |
| RRKKAAVALLPAVLLALL [SEQ. ID. NO: 3, RRKKAAVALLPAVLLALL] |  |  | HA inhibition (purified A/PR/8/34; [1]): Yes; % inhibition (purified A/PR/8/34; [2]): 95 ± 2%; EC50 (purified A/PR/8/34; [3]): 600 ± 300 nM |
| RRKKALLPAVLLALLAP [SEQ. ID. NO: 20, RRKKALLPAVLLALLAP] | Yes | 94 ± 3% | EC50 (purified A/PR/8/34): 700 ± 300 nM |
| RRKKAAVALLPA [SEQ. ID. NO: 9, RRKKAAVALLPA] | No | 0% |  |
| RRKKLLPAVLLALLAP [SEQ. ID. NO: 21, RRKKLLPAVLLALLAP] | Yes | 94 ± 4% | EC50 (purified A/PR/8/34): 800 ± 300 nM |
| RRKKAAVALLAVLLALLA [SEQ. ID. NO: 43, RRKKAAVALLAVLLALLA] |  |  | HA inhibition (purified A/PR/8/34; [1]): Yes; % inhibition (purified A/PR/8/34; [2]): 95±2%; EC50 (purified A/PR/8/34; [3]): 1600 ± 1200 nM |
| RRKKAAVALLPAVLLA [SEQ. ID. NO: 5, RRKKAAVALLPAVLLA] | Yes | 96 ± 3% | EC50 (purified A/PR/8/34): 2800 ± 1100 nM |
| RRKKP [SEQ. ID. NO: 29, RRKKP] | No | 0% |  |
| RRKKLAP [SEQ. ID. NO: 27, RRKKLAP] | No | 0% |  |
